Source: ChEMBL document CHEMBL1201862, “PubChem BioAssay data set” (2004)
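Each compound was tested at five concentrations against cells in 96-well plates for 48 hours. GI50: concentration for 50% inhibition of growth.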 The source made the active and inactive calls. No stated cut-off is given here; in the data, active = GI50 up to about 1.1 µM and inactive = higher.

What was measured:
Test in all cases: growth of human tumour cells (NCI), 48 h
[1] = tested on: OVCAR-5
[2] = tested on: OVCAR-8
[3] = tested on: ACHN
[4] = tested on: SW-620
[5] = tested on: Hs-578T
[6] = tested on: MOLT-4
[7] = tested on: SK-MEL-28
[8] = tested on: EKVX
[9] = tested on: T47D
[10] = tested on: SK-OV-3
[11] = tested on: NCI-H23
[12] = tested on: MDA-N
[13] = tested on: MDA-MB-435
[14] = tested on: HCT-15
[15] = tested on: SK-MEL-2
[16] = tested on: K562
[17] = tested on: RXF 393
[18] = tested on: A549
[19] = tested on: U-251
[20] = tested on: UACC-257

Compound | GI50 [1] | GI50 [2] | GI50 [3] | GI50 [4] | GI50 [5] | GI50 [6] | GI50 [7] | GI50 [8] | GI50 [9] | GI50 [10] | GI50 [11] | GI50 [12] | GI50 [13] | GI50 [14] [µM] | GI50 [15] | GI50 [16] | GI50 [17] | GI50 [18] | GI50 [19] | GI50 [20]
O=C1C(Br)=C(c2ccccc2)C(c2ccccc2)=C1c1ccccc1 | 12 µM (inactive) | 2.04 µM (inactive) | 2.55 µM (inactive) | 1.77 µM (inactive) | 13.7 µM (inactive) | 0.601 µM (active) | 2.61 µM (inactive) | 8.75 µM (inactive) | 2.37 µM (inactive) | 15.9 µM (inactive) | 3.64 µM (inactive) | 2.98 µM (inactive) | 3.82 µM (inactive) | 1.76 | 4.41 µM (inactive) | 1.61 µM (inactive) | 1.99 µM (inactive) | 13.1 µM (inactive) | 3.36 µM (inactive) | 3.35 µM (inactive)
O=C1C(NS(=O)(=O)c2ccccc2)=C(N(Cc2ccccc2)Cc2ccccc2)C(=O)c2ccccc21 | > 100 µM (inactive) | 70.3 µM (inactive) | 44.1 µM (inactive) | 38.9 µM (inactive) | 81.3 µM (inactive) | 21.1 µM (inactive) | 40.9 µM (inactive) | 53.7 µM (inactive) | 32.1 µM (inactive) | 39.9 µM (inactive) | 15.8 µM (inactive) | 64.6 µM (inactive) | 47.3 µM (inactive) | 37.7 | 20.8 µM (inactive) | 31.1 µM (inactive) | 15.5 µM (inactive) | 33 µM (inactive) | 35 µM (inactive) | 96.8 µM (inactive)
O=C(NCCNCCNCCNC(=O)c1cc(-c2ccccc2)nc2ccccc12)c1cc(-c2ccccc2)nc2ccccc12 | 1.87 µM (inactive) | 2.08 µM (inactive) | 2.13 µM (inactive) | 1.83 µM (inactive) | 2.25 µM (inactive) | 1.95 µM (inactive) | 1.7 µM (inactive) | 5.96 µM (inactive) | 2.68 µM (inactive) | 3.02 µM (inactive) | 3.15 µM (inactive) | 1.6 µM (inactive) | 1.81 µM (inactive) | 7.08 | 1.54 µM (inactive) | 1.94 µM (inactive) | 2.02 µM (inactive) | 5.83 µM (inactive) | 1.73 µM (inactive) | 1.72 µM (inactive)
CCOC(=O)c1sc2[n+](c1C)C(=O)/C(=C/c1ccccc1Cl)S2 | 14.7 µM (inactive) | 1.01 µM (active) | 1.53 µM (inactive) | 0.883 µM (active) | 0.822 µM (active) | 3.33 µM (inactive) | 9.75 µM (inactive) | 3.21 µM (inactive) | 15.3 µM (inactive) | 1.99 µM (inactive) | 1.63 µM (inactive) | 0.259 µM (active) | 0.281 µM (active) | 0.834 | 9.35 µM (inactive) | 0.505 µM (active) | 15.3 µM (inactive) | 0.9 µM (active) | 0.583 µM (active) | 4.83 µM (inactive)
CCOP(=O)(CC1CC(O)(CNc2cc(Cl)nc(N)n2)C1)OCC (stereo not drawn) | > 100 µM (inactive) | > 100 µM (inactive) | > 100 µM (inactive) | > 100 µM (inactive) | > 100 µM (inactive) | > 100 µM (inactive) | > 100 µM (inactive) | > 100 µM (inactive) | 98.9 µM (inactive) | > 100 µM (inactive) | > 100 µM (inactive) | > 100 µM (inactive) | > 100 µM (inactive) | > 100 | > 100 µM (inactive) | > 100 µM (inactive) | > 100 µM (inactive) | > 100 µM (inactive) | > 100 µM (inactive) | > 100 µM (inactive)
Nc1ccc2c(O)cc(O)nc2n1 | > 100 µM (inactive) | > 100 µM (inactive) | > 100 µM (inactive) | > 100 µM (inactive) | > 100 µM (inactive) | > 100 µM (inactive) | > 100 µM (inactive) | > 100 µM (inactive) | > 100 µM (inactive) | > 100 µM (inactive) | > 100 µM (inactive) | > 100 µM (inactive) | > 100 µM (inactive) | > 100 | > 100 µM (inactive) | > 100 µM (inactive) | > 100 µM (inactive) | > 100 µM (inactive) | > 100 µM (inactive) | > 100 µM (inactive)
CC(C(=O)ON1C(=O)CCC1=O)c1ccc(C(=O)c2ccccc2)s1 (stereo not drawn) | > 100 µM (inactive) | > 100 µM (inactive) | > 100 µM (inactive) | > 100 µM (inactive) | > 100 µM (inactive) | > 100 µM (inactive) | > 100 µM (inactive) | > 100 µM (inactive) | > 100 µM (inactive) | > 100 µM (inactive) | > 100 µM (inactive) | > 100 µM (inactive) | > 100 µM (inactive) | > 100 | > 100 µM (inactive) | > 100 µM (inactive) | > 100 µM (inactive) | > 100 µM (inactive) | > 100 µM (inactive) | > 100 µM (inactive)
CC[n+]1c(/C=C/c2ccc(N(CCCl)CCCl)cc2)ccc2cc(NC(=O)/C=C/c3ccccc3)ccc21 | 0.748 µM (active) | 0.406 µM (active) | 0.807 µM (active) | 0.208 µM (active) | 0.0912 µM (active) | 0.286 µM (active) | 0.762 µM (active) | 0.927 µM (active) | 0.249 µM (active) | 0.578 µM (active) | 0.482 µM (active) | 0.6 µM (active) | 0.288 µM (active) | 14.2 | 0.431 µM (active) | 0.134 µM (active) | 0.315 µM (active) | 0.279 µM (active) | 0.132 µM (active) | 0.787 µM (active)
CC1(C)OCC2OC(n3cnc4c(N)nc(Cl)nc43)C(OS(C)(=O)=O)C2O1 (stereo not drawn) | > 100 µM (inactive) | > 100 µM (inactive) | > 100 µM (inactive) | > 100 µM (inactive) | > 100 µM (inactive) | 48.2 µM (inactive) | > 100 µM (inactive) | > 100 µM (inactive) | > 100 µM (inactive) | > 100 µM (inactive) | > 100 µM (inactive) | > 100 µM (inactive) | > 100 µM (inactive) | > 100 | > 100 µM (inactive) | > 100 µM (inactive) | > 100 µM (inactive) | > 100 µM (inactive) | > 100 µM (inactive) | > 100 µM (inactive)
Cc1cccc(C)c1NC(=S)NC=C(C(N)=O)C(N)=O | > 100 µM (inactive) | > 100 µM (inactive) | > 100 µM (inactive) | > 100 µM (inactive) | > 100 µM (inactive) | > 100 µM (inactive) | > 100 µM (inactive) | > 100 µM (inactive) | > 100 µM (inactive) | > 100 µM (inactive) | > 100 µM (inactive) | > 100 µM (inactive) | > 100 µM (inactive) | > 100 | > 100 µM (inactive) | > 100 µM (inactive) | > 100 µM (inactive) | > 100 µM (inactive) | > 100 µM (inactive) | > 100 µM (inactive)
CCN(CC)CCC1CCCCN1CC(=O)N1c2ccccc2NC(=O)CC1C (stereo not drawn) | > 100 µM (inactive) | > 100 µM (inactive) | > 100 µM (inactive) | – | > 100 µM (inactive) | > 100 µM (inactive) | > 100 µM (inactive) | > 100 µM (inactive) | > 100 µM (inactive) | > 100 µM (inactive) | > 100 µM (inactive) | > 100 µM (inactive) | > 100 µM (inactive) | > 100 | > 100 µM (inactive) | > 100 µM (inactive) | > 100 µM (inactive) | > 100 µM (inactive) | > 100 µM (inactive) | > 100 µM (inactive)
Oc1ccc2c(c1)OCC1c3ccccc3OC21 (stereo not drawn) | > 100 µM (inactive) | 48.3 µM (inactive) | 39.8 µM (inactive) | 63.5 µM (inactive) | 47.5 µM (inactive) | 19.6 µM (inactive) | > 100 µM (inactive) | 27.9 µM (inactive) | > 100 µM (inactive) | > 100 µM (inactive) | 44.9 µM (inactive) | 35.6 µM (inactive) | 33.8 µM (inactive) | 82.6 | 60.5 µM (inactive) | 41.2 µM (inactive) | 94.2 µM (inactive) | – | 42.6 µM (inactive) | 86.9 µM (inactive)
CC(C)c1cccc(C(C)C)c1NC(=O)/C(CC(=O)CC(c1ccccc1)c1c(O)c2ccccc2oc1=O)=N/O (stereo not drawn) | > 100 µM (inactive) | > 100 µM (inactive) | > 100 µM (inactive) | > 100 µM (inactive) | > 100 µM (inactive) | > 100 µM (inactive) | > 100 µM (inactive) | > 100 µM (inactive) | > 100 µM (inactive) | > 100 µM (inactive) | > 100 µM (inactive) | > 100 µM (inactive) | > 100 µM (inactive) | > 100 | > 100 µM (inactive) | > 100 µM (inactive) | > 100 µM (inactive) | > 100 µM (inactive) | > 100 µM (inactive) | > 100 µM (inactive)
Nc1nc(N)c2nc(CN(C=O)c3ccc(C(=O)O)cc3)cnc2n1 | > 70 µM (inactive) | 3.85 µM (inactive) | 3.94 µM (inactive) | 17 µM (inactive) | > 100 µM (inactive) | 4.81 µM (inactive) | > 100 µM (inactive) | > 26.4 µM (inactive) | > 100 µM (inactive) | > 30.1 µM (inactive) | 20 µM (inactive) | 8.71 µM (inactive) | 17.9 µM (inactive) | 7.14 | > 100 µM (inactive) | 1.6 µM (inactive) | > 100 µM (inactive) | 6.14 µM (inactive) | > 93.5 µM (inactive) | > 100 µM (inactive)
